{"source": "patent US11021507B2", "about": "“Myricetin derivative and preparing method thereof, and application of same for treating colitis, preventing and treating colitis tumorigenesis, and treating colorectal cancer” (MARINE BIOMEDICAL RESEARCH INSTITUTE OF QINGDAO CO., LTD., priority 2016, dated 2021)", "key": {"[1]": {"system": "azomethane (AOM)/dextran sulfate sodium (DSS)-induced chronic ulcerative colitis and inflammation-associated tumorigenesis", "test": "AOM/DSS-induced chronic ulcerative colitis and inflammation-associated tumorigenesis in mice", "assay_type": "in vivo, C57BL/6 mice", "details": "100 mg/kg aspirin or myricetin; M10 25-100 mg/kg; 12 weeks; FIG. 8", "source_text": "Determination of therapeutic effect of myricetin derivative M10 on azomethane (AOM)/dextran sulfate sodium (DSS)-induced chronic ulcerative colitis and inflammation-associated tumorigenesis.\nCompound tested and control drugs: myricetin derivative M10, control compound myricetin, aspirin (Sigma).\nExperimental animals: C57BL/6 mice, 20 to 22 g, both male and female, SPF grade provided by Beijing Vital Lihua Experimental Animal Company, and mice were fed with standard animal feed.\nAnimal models of AOM/DSS-induced chronic colitis and inflammation-associated tumorigenesis: 48 C57BL/6 mice were randomly divided into six groups with eight mice in each group, including model group, for which 0.5% CMC-Na was administered intragastrically every day; aspirin group, for which 100 mg/kg of aspirin (dissolved in 0.5% CMC-Na) was administered intragastrically; myricetin control group, for which 100 mg/kg of myricetin (dissolved in 0.5% CMCNa) was administered intragastrically; M10 high dose group, for which 100 mg/kg of M10 (dissolved in pure water) was administered intragastrically; M10 medium dose group, for which 50 mg/kg of M10 (dissolved in pure water) was administered intragastrically; M10 low dose group, for which 25 mg/kg of M10 (dissolved in pure water) was administered intragastrically.\nPreparation of chronic ulcerative colitis mice model: said groups of mice were intraperitoneally injected with 10 mg/kg of azoxymethane (AOM) on day one. Purified drinking water containing 2% dextran sulfate sodium (DSS) was freshly made and provided on day one and on the next six consecutive days, the replaced by purified drinking water for the next seven consecutive days. The above procedure was then repeated for 3 more times.\nM10-treated group: 200 mg of M10 was weighed and dissolved in 10 mL of 0.5% CMC-Na solution (20 mg/mL), and consecutively diluted 2 times and 5 times for future use. 0.2 mL of each prepared solutions was given intragastrically to mice (the body weight was assumed as 20 g per mouse), namely divided into high, medium or small dose groups. Myricetin control group: 200 mg of myricetin was weighed and dissolved in 10 mL of 0.5% CMC-Na. Aspirin-treated group: 200 mg of aspirin was weighed and dissolved in 10 mL of 0.5% CMC-Na. Administration method: The body weight of mice was measured daily, and drugs were administered at 0.01 mL/g (100 mg/kg) per day for 12 consecutive weeks. 4. Animal observation and treatment methods: weight, diet, diarrhea (or bloody stools) etc. were observed daily.\nAt the end of the experiment, mice were sacrificed. The colon and small intestine were dissected out for visual observation and pathological analysis. Pathological examination methods and evaluation criteria: the mice colons of each group were fixed with 10% formalin, followed by routine paraffin embedding, sectioning and HE staining. The developmental degree of colonic inflammation and colon cancer in each group of mice was evaluated under microscopic observation."}, "[2]": {"system": "mouse peritoneal macrophage RAW264.7", "test": "Cytotoxicity / cell proliferation in RAW264.7 macrophages", "assay_type": "cell-based", "details": "incubated 24 hours; dose increased to 20 μM", "source_text": "Therefore, this series of compounds may be considered suitable for drug development for treating chronic colitis and inflammatory bowel disease."}, "[3]": {"test": "Water solubility test (equilibrium solubility in pure water, LC/MS)", "assay_type": "physicochemical", "details": "37° C.; for solubility at 24 h: ultrapure water, thermodynamic from solid", "protocol": "Water solubility test for myricetin derivative M5, M6 and M10\nInstrument: Waters Alliance e2695 LC/MS; chromatographic column: Waters×Bridge C18 4.6×150 mm.\nAppropriate amount of said myricetin derivative was weighed and dissolved in methanol to prepare a solution of 1 mg/ml respectively, which was diluted with methanol to different concentrations of working solution as standard samples for testing.\n2. 1 mL of ultrapure water was added into a 1.5 ml transparent EP tube. Appropriate amount of said myricetin derivative was each added into a transparent EP tube, followed by vortex mixation and ultrasonication till the drug was no longer dissolved (the solution appeared cloudy or had suspended particles). The mixture was then placed in an incubating oscillator for shaking at the temperature of (37±1) ° C., 100 r/min, for 24 hours, to achieve a sufficient solubility balance. 24 hours later, the saturated solution was taken out for centrifugation at 3000 r/min for 15 min. The supernatant was immediately filtered through a 0.45 μm microporous membrane, and the initial part of the filtrate was discarded. Samples were added for chromatography. The peak area was measured and the equilibrium solubility of each compound in pure water was calculated using a standard curve."}, "[4]": {"system": "dextran sulfate sodium (DSS)-induced chronic colitis in mice", "test": "DSS-induced chronic colitis model in mice", "assay_type": "in vivo, C57BL/6 mice", "details": "for Diarrhea (general symptoms) during drug administration / Number of mice with no obvious diarrhea: 100 mg/kg daily, six mice per group; for Diarrhea (general symptoms) during drug administration: 18 days; for Grading scores for chronic inflammation of colon: number of mice colons with score + / Grading scores for chronic inflammation of colon: number of mice colons with score ++ / Grading scores for chronic inflammation of colon: number of mice colons with score 0: 3 mice examined per group, HE staining; for Grading scores for chronic inflammation of colon: number of mice colons with score +: + = slight inflammatory cell infiltration; for Grading scores for chronic inflammation of colon: number of mice colons with score ++: ++ = moderate inflammatory cell infiltration; for Grading scores for chronic inflammation of colon: number of mice colons with score 0: score 0 = no obvious inflammatory cell infiltration; for Colon length compared with model group / Body weight compared with model group: P<0.05; for Body weight compared with model group: FIG. 11", "source_text": "Determination of the therapeutic effects of myricetin derivative M5, M6 and M7 on dextran sulfate sodium (DSS)-induced chronic colitis in mice\n1. Compounds tested and control drugs: myricetin derivative M5, M6 and M7, positive control drug-sulfasalazine (SASP, from Sigma); control drug-myricetin;\nExperimental animals: C57BL/6 mice, 20 to 22 g, both male and female, SPF grade provided by Charles River Laboratories, Beijing.\n2. DSS-induced chronic colitis model in mice: 36 C57BL/6 mice were randomly divided into six groups, with six mice in each group. DSS (0.5 g) was weighed and dissolved in 50 ml of purified water, for 6 mice to drink in one day. The DSS water was made freshly and was provided at fixed time on a daily basis for 7 days successively, which was then replaced by freshly-made purified drinking water for the next successive 14 days. The same procedure was repeated successively for 3 times. Each group of mice was given the same treatment for the preparation of chronic colitis model. 3. Drug preparation method: 3.1 Solvent control group: 0.5 mL of DMSO was added to 10 mL of 0.5% CMC-Na. 3.2 Myricetin derivative M5 and M6 tested: 100 mg of M5 and M6 each was weighed and dissolved in 0.5 ml of DMSO, and diluted to 10 mL with 0.5% CMC-Na. 3.3 Myricetin derivative M7 tested: 100 mg of M7 was weighed and dissolved in 10 mL of 5% sodium bicarbonate injection. 3.4 Myricetin control: 100 mg of myricetin was weighed and dissolved in 10 mL of 0.5% CMC-Na. 3.5 Sulfasalazine (SASP): 100 mg of SASP was weighed and dissolved in 10 mL of saline. 4. Administration method: the body weight of mice was weighed daily, and drugs were administered 0.01 ml/g (100 mg/kg) consecutively for 18 days. 5. Animal observation and treatment method: body weight, diet, diarrhea (or bloody stools) etc. were observed daily. At the end of the experiment, mice were sacrificed for dissection. The colon and small intestine were dissected out for visual observation and pathological analysis. Pathological examination methods and evaluation criteria: the colons of each group were fixed with 10% formalin followed by routine paraffin embedding, sectioning and HE staining. The degree of colonic inflammation in each group was evaluated under microscope. According to the degree of inflammatory cell infiltration in colonic lamina propria, the following grading criteria were established: level 0, no obvious inflammatory cell infiltration; +(level 1), slight inflammatory cell infiltration; ++(level 2), moderate inflammatory cell infiltration; +++(level 3), severe inflammatory cell infiltration and may be accompanied by necrosis or loss of mucosal cells.\nDetermination of Therapeutic Effects of Myricetin Derivative M13 and M14 on DSS-Induced Chronic Colitis in Mice\nSee Example 8 for the experimental method."}, "[5]": {"details": "100 mg/kg for 18 days, end of experiment, FIG. 2"}, "[6]": {"details": "Example 17, method of Example 8"}, "[7]": {"details": "Example 17, method of Example 8, FIG. 12"}}, "data": [{"smiles": "CC(=O)Oc1ccccc1C(=O)O", "note": "[aspirin, reference compound]", "values": [{"measurement": "Pathological analysis of colon tissue (colon cancer)", "setting": "[1]", "result": "alleviated to some extent"}]}, {"smiles": "CC(=O)OC[C@H]1O[C@@H](O[C@H]2[C@H](OC(C)=O)[C@@H](OC(C)=O)[C@H](Oc3c(-c4cc(OCc5ccccc5)c(OCc5ccccc5)c(OCc5ccccc5)c4)oc4cc(OCc5ccccc5)cc(O)c4c3=O)O[C@@H]2COC(C)=O)[C@H](OC(C)=O)[C@@H](OC(C)=O)[C@H]1OC(C)=O", "note": "[M5]", "values": [{"measurement": "Inhibitory effect on cell proliferation (cytotoxic effect)", "setting": "[2]", "result": "no significant inhibitory effect"}, {"measurement": "Solubility (in words)", "setting": "[3]; 24 h, per Table 2", "result": "very low"}, {"measurement": "solubility at 24 h", "setting": "[3]", "result": "< 0.1", "unit": "µg/mL"}, {"measurement": "Diarrhea (general symptoms) during drug administration", "setting": "[4]", "result": "no significant reduction in diarrhea"}, {"measurement": "Grading scores for chronic inflammation of colon: number of mice colons with score +", "setting": "[4]; 100 mg/kg for 18 days", "result": 1}, {"measurement": "Grading scores for chronic inflammation of colon: number of mice colons with score ++", "setting": "[4]; 100 mg/kg for 18 days", "result": 2}]}, {"smiles": "O=C(O)c1cc(/N=N/c2ccc(S(=O)(=O)Nc3ccccn3)cc2)ccc1O", "note": "[SASP, sulfasalazine, reference compound]", "values": [{"measurement": "Diarrhea (general symptoms) during drug administration", "setting": "[4]", "result": "slight reduction in diarrhea"}, {"measurement": "Grading scores for chronic inflammation of colon: number of mice colons with score +", "setting": "[4]; 100 mg/kg for 18 days", "result": 1}, {"measurement": "Grading scores for chronic inflammation of colon: number of mice colons with score ++", "setting": "[4]; 100 mg/kg for 18 days", "result": 2}]}, {"smiles": "O=c1c(O[C@@H]2O[C@H](CO)[C@@H](O[C@@H]3O[C@H](CO)[C@H](O)[C@H](O)[C@H]3O)[C@H](O)[C@H]2O)c(-c2cc(O)c(O)c(O)c2)oc2cc(O)cc(O)c12", "note": "[M7]", "values": [{"measurement": "Inhibitory effect on cell proliferation (cytotoxic effect)", "setting": "[2]", "result": "no significant inhibitory effect"}, {"measurement": "Diarrhea (general symptoms) during drug administration", "setting": "[4]", "result": "significant reduction in diarrhea"}, {"measurement": "Number of mice with no obvious diarrhea", "setting": "[4]", "result": 4, "unit": "mice"}, {"measurement": "Grading scores for chronic inflammation of colon: number of mice colons with score 0", "setting": "[4]; 100 mg/kg for 18 days", "result": 3}, {"measurement": "Degree of chronic colonic inflammation (pathological examination)", "setting": "[4]; 100 mg/kg for 18 days, FIG. 3 and Table 1", "result": "significantly alleviated"}, {"measurement": "Colon length compared with model group", "setting": "[4]; [5]", "result": "significantly longer"}]}, {"smiles": "O=c1c(O[C@@H]2O[C@H](CO[C@@H]3O[C@H](CO)[C@@H](O)[C@H](O)[C@@H]3O)[C@H](O)[C@H](O)[C@H]2O)c(-c2cc(O)c(O)c(O)c2)oc2cc(O)cc(O)c12", "note": "[M14]", "values": [{"measurement": "Body weight compared with model group", "setting": "[4]; [6]", "result": "significantly increased"}, {"measurement": "Colon length compared with model group", "setting": "[4]; [7]", "result": "significantly increased"}]}, {"smiles": "O=c1c(O[C@@H]2O[C@H](CO[C@@H]3O[C@H](CO)[C@@H](O)[C@H]3O)[C@H](O)[C@H](O)[C@H]2O)c(-c2cc(O)c(O)c(O)c2)oc2cc(O)cc(O)c12", "note": "[M13]", "values": [{"measurement": "Body weight compared with model group", "setting": "[4]; [6]", "result": "significantly increased"}, {"measurement": "Colon length compared with model group", "setting": "[4]; [7]", "result": "significantly increased"}]}, {"smiles": "CC(=O)OC[C@H]1O[C@@H](O[C@H]2[C@H](OC(C)=O)[C@@H](OC(C)=O)[C@H](Oc3c(-c4cc(O)c(O)c(O)c4)oc4cc(O)cc(O)c4c3=O)O[C@@H]2COC(C)=O)[C@H](OC(C)=O)[C@@H](OC(C)=O)[C@H]1OC(C)=O", "note": "[M6]", "values": [{"measurement": "Inhibitory effect on cell proliferation (cytotoxic effect)", "setting": "[2]", "result": "no significant inhibitory effect"}, {"measurement": "solubility at 24 h", "setting": "[3]", "result": 1.4, "unit": "µg/mL"}, {"measurement": "Diarrhea (general symptoms) during drug administration", "setting": "[4]", "result": "slight reduction in diarrhea"}, {"measurement": "Number of mice with no obvious diarrhea", "setting": "[4]", "result": "1-2 mice"}, {"measurement": "Grading scores for chronic inflammation of colon: number of mice colons with score +", "setting": "[4]; 100 mg/kg for 18 days", "result": 2}, {"measurement": "Grading scores for chronic inflammation of colon: number of mice colons with score 0", "setting": "[4]; 100 mg/kg for 18 days", "result": 1}, {"measurement": "Colon length compared with model group", "setting": "[4]; [5]", "result": "significantly longer"}]}]}
